Source: ChEMBL document CHEMBL1909046, “DrugMatrix in vitro pharmacology data”

Test system: not listed separately
Assay: DRUGMATRIX: GABAA, Chloride Channel, TBOB radioligand binding (ligand: [3H] TBOB)
Format: cell membranes, Rattus norvegicus, Wistar, Cerebral cortex, Membrane
Conditions: Not Active = under 50% inhibition at 10 µM

SMILES | IC50 | Ki
O=C(O)CC(O)(CC(=O)O)C(=O)O [CITRIC ACID] | Not Active | Not Active
CC(C)NCC(O)c1ccccc1Cl (stereo not drawn) [CLORPRENALINE] | Not Active | Not Active
CN1CCN(C(c2ccccc2)c2ccccc2)CC1 [CYCLIZINE] | Not Active | Not Active
CN1C[C@@H]2C[C@H]1CN2c1cc2c(cc1F)c(=O)c(C(=O)O)cn2C1CC1 [DANOFLOXACIN] | Not Active | Not Active
COc1cccc2c1C(=O)c1c(O)c3c(c(O)c1C2=O)C[C@@](O)(C(C)=O)C[C@@H]3O[C@H]1C[C@H](N)[C@H](O)[C@H](C)O1 [DAUNORUBICIN] | Not Active | Not Active
O=C(O)c1cc(-c2ccc(F)cc2F)ccc1O [DIFLUNISAL] | Not Active | Not Active
C[S+](C)[O-] [DIMETHYL SULFOXIDE] | Not Active | Not Active

Target: Melanocortin receptor 3 (Homo sapiens, UniProt P41968); further: in other assays of this panel Not Active means under 50% inhibition at 10 µM
Assay: not given
Format: cell membranes, Membrane
Conditions: hek293

Chain of Melanocortin receptor 3 (P41968 whole entry): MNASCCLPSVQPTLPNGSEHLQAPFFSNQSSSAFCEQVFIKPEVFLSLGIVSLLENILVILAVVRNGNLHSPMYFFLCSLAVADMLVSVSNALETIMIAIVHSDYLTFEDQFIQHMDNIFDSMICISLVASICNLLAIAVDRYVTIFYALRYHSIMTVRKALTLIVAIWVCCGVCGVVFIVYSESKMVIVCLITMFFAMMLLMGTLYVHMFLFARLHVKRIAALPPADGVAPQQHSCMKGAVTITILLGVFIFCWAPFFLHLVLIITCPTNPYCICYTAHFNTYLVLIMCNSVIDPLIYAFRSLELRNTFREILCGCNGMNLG

SMILES | IC50
O=C(O)CC(O)(CC(=O)O)C(=O)O [CITRIC ACID] | Not Active
CC(C)NCC(O)c1ccccc1Cl (stereo not drawn) [CLORPRENALINE] | Not Active
CN1CCN(C(c2ccccc2)c2ccccc2)CC1 [CYCLIZINE] | Not Active
CN1C[C@@H]2C[C@H]1CN2c1cc2c(cc1F)c(=O)c(C(=O)O)cn2C1CC1 [DANOFLOXACIN] | Not Active
COc1cccc2c1C(=O)c1c(O)c3c(c(O)c1C2=O)C[C@@](O)(C(C)=O)C[C@@H]3O[C@H]1C[C@H](N)[C@H](O)[C@H](C)O1 [DAUNORUBICIN] | Not Active
O=C(O)c1cc(-c2ccc(F)cc2F)ccc1O [DIFLUNISAL] | Not Active
C[S+](C)[O-] [DIMETHYL SULFOXIDE] | Not Active

Test system: not listed separately
Assay: DRUGMATRIX: GABAA, Muscimol, Central radioligand binding (ligand: [3H] Muscimol)
Format: cell membranes, Rattus norvegicus, Wistar, Brain, Membrane
Conditions: Not Active = under 50% inhibition at 10 µM

SMILES | IC50 | Ki
O=C(O)CC(O)(CC(=O)O)C(=O)O [CITRIC ACID] | Not Active | Not Active
CC(C)NCC(O)c1ccccc1Cl (stereo not drawn) [CLORPRENALINE] | Not Active | Not Active
CN1CCN(C(c2ccccc2)c2ccccc2)CC1 [CYCLIZINE] | Not Active | Not Active
CN1C[C@@H]2C[C@H]1CN2c1cc2c(cc1F)c(=O)c(C(=O)O)cn2C1CC1 [DANOFLOXACIN] | Not Active | Not Active
COc1cccc2c1C(=O)c1c(O)c3c(c(O)c1C2=O)C[C@@](O)(C(C)=O)C[C@@H]3O[C@H]1C[C@H](N)[C@H](O)[C@H](C)O1 [DAUNORUBICIN] | Not Active | Not Active
O=C(O)c1cc(-c2ccc(F)cc2F)ccc1O [DIFLUNISAL] | Not Active | Not Active
C[S+](C)[O-] [DIMETHYL SULFOXIDE] | Not Active | Not Active

Target: Adenosine receptor A2a (Homo sapiens, UniProt P29274)
Assay: DRUGMATRIX: Adenosine A2A radioligand binding (ligand: […])
Format: cell membranes, HEK293, Membrane
Conditions: hek293; Not Active = under 50% inhibition at 10 µM

Chain of Adenosine receptor A2a (P29274 whole entry): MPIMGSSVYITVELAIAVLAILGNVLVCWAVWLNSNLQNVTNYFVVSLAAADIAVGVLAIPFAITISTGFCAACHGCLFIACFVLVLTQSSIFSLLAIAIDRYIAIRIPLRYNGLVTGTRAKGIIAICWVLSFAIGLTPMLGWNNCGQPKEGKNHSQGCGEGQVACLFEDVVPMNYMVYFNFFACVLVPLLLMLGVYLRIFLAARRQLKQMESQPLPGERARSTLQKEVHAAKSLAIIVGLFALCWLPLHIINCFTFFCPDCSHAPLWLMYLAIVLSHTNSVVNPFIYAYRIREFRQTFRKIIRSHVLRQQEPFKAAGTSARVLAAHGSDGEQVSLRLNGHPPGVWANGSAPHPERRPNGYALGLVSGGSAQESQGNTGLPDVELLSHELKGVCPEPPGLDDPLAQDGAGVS

SMILES | IC50
O=C(O)CC(O)(CC(=O)O)C(=O)O [CITRIC ACID] | Not Active
CC(C)NCC(O)c1ccccc1Cl (stereo not drawn) [CLORPRENALINE] | Not Active
CN1CCN(C(c2ccccc2)c2ccccc2)CC1 [CYCLIZINE] | Not Active
CN1C[C@@H]2C[C@H]1CN2c1cc2c(cc1F)c(=O)c(C(=O)O)cn2C1CC1 [DANOFLOXACIN] | Not Active
COc1cccc2c1C(=O)c1c(O)c3c(c(O)c1C2=O)C[C@@](O)(C(C)=O)C[C@@H]3O[C@H]1C[C@H](N)[C@H](O)[C@H](C)O1 [DAUNORUBICIN] | Not Active
O=C(O)c1cc(-c2ccc(F)cc2F)ccc1O [DIFLUNISAL] | Not Active
C[S+](C)[O-] [DIMETHYL SULFOXIDE] | Not Active

Target: T1, Polyunsaturated fatty acid lipoxygenase ALOX15 (Oryctolagus cuniculus, UniProt P12530);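 further: inhibition of 15-lipoxygenase enzyme activity measured with linoleic acid as the substrate; in other assays of this panel Not Active means under 50% inhibition at 10 µM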
T1 sequence (P12530 whole entry): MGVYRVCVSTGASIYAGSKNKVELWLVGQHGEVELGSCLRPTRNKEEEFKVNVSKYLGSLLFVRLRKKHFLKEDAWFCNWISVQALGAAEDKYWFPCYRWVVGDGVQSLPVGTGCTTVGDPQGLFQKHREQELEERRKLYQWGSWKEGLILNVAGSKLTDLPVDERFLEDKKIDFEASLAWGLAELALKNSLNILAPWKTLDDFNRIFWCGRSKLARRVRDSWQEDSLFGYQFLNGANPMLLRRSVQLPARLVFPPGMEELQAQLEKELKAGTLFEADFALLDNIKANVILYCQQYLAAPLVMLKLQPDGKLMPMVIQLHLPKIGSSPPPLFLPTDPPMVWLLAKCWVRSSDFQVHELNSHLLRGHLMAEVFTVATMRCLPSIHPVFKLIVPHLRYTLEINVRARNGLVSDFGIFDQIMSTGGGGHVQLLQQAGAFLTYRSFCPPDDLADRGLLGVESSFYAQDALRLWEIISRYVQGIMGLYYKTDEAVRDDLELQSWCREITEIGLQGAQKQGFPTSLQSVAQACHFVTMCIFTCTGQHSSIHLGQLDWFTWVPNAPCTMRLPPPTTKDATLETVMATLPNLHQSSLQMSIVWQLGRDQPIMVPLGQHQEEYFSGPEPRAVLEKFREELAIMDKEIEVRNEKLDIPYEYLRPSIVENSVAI
Assay: biochemical
Format: tissue-based, Reticulocytes
Conditions: reticulocytes

SMILES | IC50
O=C(O)CC(O)(CC(=O)O)C(=O)O [CITRIC ACID] | Not Active
CC(C)NCC(O)c1ccccc1Cl (stereo not drawn) [CLORPRENALINE] | Not Active
CN1CCN(C(c2ccccc2)c2ccccc2)CC1 [CYCLIZINE] | Not Active
CN1C[C@@H]2C[C@H]1CN2c1cc2c(cc1F)c(=O)c(C(=O)O)cn2C1CC1 [DANOFLOXACIN] | Not Active
COc1cccc2c1C(=O)c1c(O)c3c(c(O)c1C2=O)C[C@@](O)(C(C)=O)C[C@@H]3O[C@H]1C[C@H](N)[C@H](O)[C@H](C)O1 [DAUNORUBICIN] | Not Active
O=C(O)c1cc(-c2ccc(F)cc2F)ccc1O [DIFLUNISAL] | Not Active
C[S+](C)[O-] [DIMETHYL SULFOXIDE] | Not Active

Test system: not listed separately
Assay: DRUGMATRIX: Phosphodiesterase PDE4 enzyme inhibition (substrate: [3H]cAMP + cAMP)
Conditions: u-937; Not Active = under 50% inhibition at 10 µM

SMILES | IC50 | Ki
O=C(O)CC(O)(CC(=O)O)C(=O)O [CITRIC ACID] | Not Active | Not Active
CC(C)NCC(O)c1ccccc1Cl (stereo not drawn) [CLORPRENALINE] | Not Active | Not Active
CN1CCN(C(c2ccccc2)c2ccccc2)CC1 [CYCLIZINE] | Not Active | Not Active
CN1C[C@@H]2C[C@H]1CN2c1cc2c(cc1F)c(=O)c(C(=O)O)cn2C1CC1 [DANOFLOXACIN] | Not Active | Not Active
COc1cccc2c1C(=O)c1c(O)c3c(c(O)c1C2=O)C[C@@](O)(C(C)=O)C[C@@H]3O[C@H]1C[C@H](N)[C@H](O)[C@H](C)O1 [DAUNORUBICIN] | Not Active | Not Active
O=C(O)c1cc(-c2ccc(F)cc2F)ccc1O [DIFLUNISAL] | Not Active | Not Active
C[S+](C)[O-] [DIMETHYL SULFOXIDE] | Not Active | Not Active
